Measurements from patent US11234982B2, “Methods for treating ocular surface pain” (NOVARTIS AG, priority 2019, dated 2022).

Tests used:
cornea = assay: Esthesiometry assessment (Part 3): corneal sensitivity, anesthetic effect; type: in vivo, human; details: for Anesthetic effect on the cornea (esthesiometry): single eye drop: tetracaine 0.5%, diclofenac 0.1%
Description: Part 3 was an esthesiometry assessment to evaluate the anesthetic properties of compound I. Part 3 of the study had four arms, with compound I, vehicle, tetracaine (0.5% ophthalmic solution, used as a positive control) and diclofenac sodium (0.1% ophthalmic solution, used as the active NSAID comparator). Ocular anesthetic was selected because of its established anesthetic effect; however it is not the standard of care due to its negative effect on wound healing. NSAID is the current standard of care for corneal pain after PRK with minimal anesthetic but significant pain control properties. Vehicle eye drops were used as a negative control to enable better determination of the potential anesthetic effect. Twelve healthy subjects, who met the eligibility criteria, were randomized to receive a single eye drop of 4 study treatments, each during 1 of 4 different study days (Days 1, 4, 7 and 10). Each subject was randomized to receive the study treatment according to one of the following four sequences: • Sequence 1: Anesthetic, NSAID, compound I 2.5%, Vehicle • Sequence 2: NSAID, Vehicle, Anesthetic, compound I 2.5% • Sequence 3: Vehicle, compound I 2.5%, NSAID, Anesthetic • Sequence 4: compound I 2.5%, Anesthetic, Vehicle, NSAID
(§1) Inclusion Criteria: • Written informed consent was obtained before any assessment was performed. • Healthy male and female subjects aged 18 to 50 years (inclusive), and in good health as determined by past medical history, physical examination, vital signs, ECG, and laboratory tests at Screening. • At Screening, and Baseline, vital signs (systolic and diastolic blood pressure (BP) and pulse rate) were assessed in the sitting position after the subject had rested for at least 3 minutes and again after 3 minutes in the standing position. […] BMI=Body weight (kg)/[Height (m)]^2 • Subjects who were able to communicate well with the Investigator, to understand and comply with the requirements of the study. • For Part 3, subjects Baseline levels of eye sensitivity were to be in the range of 50 to 60 mm (inclusive) as measured by the Cochet-Bonnet esthesiometer.
The first-in-human study further evaluated potential anesthetic effect of topical ocular 2.5% compound I by esthesiometry testing, i.e. measurement of the filament length (cm) when the threshold of cornea touch is perceived.

healthy volunteers = assay: First in human study Part 1: SAD, incidence of adverse events; type: in vivo; details: N = 6
Experimental: This example describes a first-in-human study of compound I conducted in healthy volunteers. A total of 54 subjects were administered to study medication. Part 1 of the first in human study administered single ascending doses of 0.15%, 1.5%, 2.5% w/v (1 drop) of compound I in an eye drop.
Safety assessments: Safety assessments consisted of collecting all adverse events (AEs), serious adverse events (SAEs), including systemic and ocular adverse events, along with their severity and relationship to study drug. Systemic safety assessments included regular monitoring of hematology, blood chemistry and urinalysis performed at study center and regular assessments of physical examination, vital signs (systolic and diastolic blood pressure, pulse rate, and body temperature), ECG, pregnancy and assessments of fertility and hand immersion test at 49° C. during MAD part. Ocular safety assessments included early treatment diabetic retinopathy study (ETDRS) visual acuity, intraocular pressure, slit-lamp biomicroscopy, corneal staining and dilated fundus exam.
as §1
History of any chronic eye disease other than refractive error, incipient cataract, strabismic amblyopia, or anisometropic amblyopia. Subjects with a history of acute eye disease (such as infection, corneal abrasion or allergy) within the past 6 months from Screening were eligible if the disease was not active. • Any currently active ocular condition that required use of topical eye drops. • Subjects using continuous positive airway pressure or other sleep apnea devices.

## CC(C)c1nc2cc(O)ccc2c(=O)n1-c1ccc(C#N)cc1 [Compound I, 4-(7-hydroxy-2-isopropyl-4-oxo-4H-quinazolin-3-yl)-benzonitrile]
cornea; Compound I 2.5% (N=11) vs Tetracaine 0.5% (N=12) at 2.5 and 10 minutes post-dose
  Corneal sensitivity, least squares means, Test vs Ref: vs Tetracaine 0.5%: statistical and clinical significance were observed
cornea; compound I 2.5%, time points up to 30 minutes post-dose
  Difference in corneal sensitivity vs vehicle: No difference
cornea; compound I 2.5%
  Anesthetic effect on the cornea (esthesiometry): no anesthetic effect at any time point
cornea; compound I 2.5%, listed as compound I
  Anesthetic effect on the cornea (esthesiometry): lack of anesthetic effect
Healthy volunteers; 0.15% 1 drop
  AEs leading to of study: nE: 0
  AEs leading to of study: nS (%): 0 (0.0) nS (%)
  AEs of Mild severity: nE: 3
  AEs of Mild severity: nS (%): 1 (16.7) nS (%)
  AEs of Moderate severity: nE: 0
  AEs of Moderate severity: nS (%): 0 (0.0) nS (%)
  AEs, Subjects with AEs: nE (AE events): 3
  AEs, Subjects with AEs: nS (%) (subjects with at least one AE): 1 (16.7) nS (%)
  Serious AEs: nE: 0
  Serious AEs: nS (%): 0 (0.0) nS (%)
  Study drug-related AEs: nE: 3
  Study drug-related AEs: nS (%): 1 (16.7) nS (%)
  Study-drug related AEs leading to discontinuation of study: nE: 0
  Study-drug related AEs leading to discontinuation of study: nS (%): 0 (0.0) nS (%)
Healthy volunteers; 1.5% 1 drop
  AEs leading to of study: nE: 0
  AEs leading to of study: nS (%): 0 (0.0) nS (%)
  AEs of Mild severity: nE: 3
  AEs of Mild severity: nS (%): 2 (33.3) nS (%)
  AEs of Moderate severity: nE: 0
  AEs of Moderate severity: nS (%): 0 (0.0) nS (%)
  AEs, Subjects with AEs: nE (AE events): 3
  AEs, Subjects with AEs: nS (%) (subjects with at least one AE): 2 (33.3) nS (%)
  Serious AEs: nE: 0
  Serious AEs: nS (%): 0 (0.0) nS (%)
  Study drug-related AEs: nE: 3
  Study drug-related AEs: nS (%): 2 (33.3) nS (%)
  Study-drug related AEs leading to discontinuation of study: nE: 0
  Study-drug related AEs leading to discontinuation of study: nS (%): 0 (0.0) nS (%)
Healthy volunteers; 2.5% 1 drop
  AEs leading to of study: nE: 0
  AEs leading to of study: nS (%): 0 (0.0) nS (%)
  AEs of Mild severity: nE: 0
  AEs of Mild severity: nS (%): 0 (0.0) nS (%)
  AEs of Moderate severity: nE: 0
  AEs of Moderate severity: nS (%): 0 (0.0) nS (%)
  AEs, Subjects with AEs: nE (AE events): 0
  AEs, Subjects with AEs: nS (%) (subjects with at least one AE): 0 (0.0) nS (%)
  Serious AEs: nE: 0
  Serious AEs: nS (%): 0 (0.0) nS (%)
  Study drug-related AEs: nE: 0
  Study drug-related AEs: nS (%): 0 (0.0) nS (%)
  Study-drug related AEs leading to discontinuation of study: nE: 0
  Study-drug related AEs leading to discontinuation of study: nS (%): 0 (0.0) nS (%)
